pIC50: −log10 of the molar value.
Experiment: Inhibition of Escherichia coli UTI89 PapD chaperon assessed as inhibition of biofilm formation

pIC50	Structure (SMILES)
4.21	O=C(O)c1c(-c2ccco2)sc2c(C3CC3)c(Cc3cccc4ccccc34)cc(=O)n12
4.41	CS(=O)(=O)NC(=O)c1c(-c2ccccc2)sc2c(C3CC3)c(Cc3cccc4ccccc34)cc(=O)n12
4.05	Cc1sc2c(C3CC3)c(Cc3cccc4ccccc34)cc(=O)n2c1C(=O)O
3.52	CC(C)(O)c1sc2c(C3CC3)c(Cc3cccc4ccccc34)cc(=O)n2c1C(=O)O
4.89	Cc1ccc(-c2sc3c(C4CC4)c(Cc4cccc5ccccc45)cc(=O)n3c2C(=O)O)cc1
4.60	O=C(O)c1c(-c2ccsc2)sc2c(C3CC3)c(Cc3cccc4ccccc34)cc(=O)n12
4.11	O=C(O)c1c(-c2ccoc2)sc2c(C3CC3)c(Cc3cccc4ccccc34)cc(=O)n12
4.96	Cc1cccc(-c2sc3c(C4CC4)c(Cc4cccc5ccccc45)cc(=O)n3c2C(=O)O)c1
5.15	O=C(O)c1c(Cc2ccccc2)sc2c(C3CC3)c(Cc3cccc4ccccc34)cc(=O)n12
3.80	O=C(Nc1ccccc1)c1sc2c(C3CC3)c(Cc3cccc4ccccc34)cc(=O)n2c1C(=O)O
4.96	O=C(O)c1c(-c2ccccc2)sc2c(C3CC3)c(Cc3cccc4ccccc34)cc(=O)n12
